Tests used:
Settings in all cases: Compound concentration 1000.0 nM
[1] = molecular target: Atypical kinase COQ8B, mitochondrial (Homo sapiens) (UniProt Q96D53)
[2] = molecular target: T1, Aurora kinase A (Homo sapiens) (UniProt O14965)
T1 sequence (whole entry): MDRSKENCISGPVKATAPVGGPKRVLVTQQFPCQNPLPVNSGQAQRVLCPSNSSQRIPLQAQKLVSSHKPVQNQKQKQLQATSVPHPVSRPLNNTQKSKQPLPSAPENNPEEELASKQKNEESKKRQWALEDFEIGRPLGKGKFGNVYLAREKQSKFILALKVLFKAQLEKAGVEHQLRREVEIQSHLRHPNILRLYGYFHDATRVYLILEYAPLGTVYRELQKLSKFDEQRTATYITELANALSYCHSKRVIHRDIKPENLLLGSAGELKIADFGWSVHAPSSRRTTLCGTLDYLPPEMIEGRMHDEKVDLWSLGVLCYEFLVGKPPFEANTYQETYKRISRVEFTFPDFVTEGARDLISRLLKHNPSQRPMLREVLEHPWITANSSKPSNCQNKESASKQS

[3] = molecular target: Cyclin-dependent kinase 4 (Homo sapiens) (UniProt P11802)
[4] = molecular target: Cyclin-dependent kinase 8 (Homo sapiens) (UniProt P49336)
[5] = molecular target: Fibroblast growth factor receptor 1 (Homo sapiens) (UniProt P11362)
[6] = molecular target: Fibroblast growth factor receptor 3 (Homo sapiens) (UniProt P22607)
[7] = molecular target: Tyrosine-protein kinase JAK2 (Homo sapiens) (UniProt O60674)
[8] = molecular target: T2, Mitogen-activated protein kinase kinase kinase kinase 3 (Homo sapiens) (UniProt Q8IVH8)
T2 sequence (whole entry): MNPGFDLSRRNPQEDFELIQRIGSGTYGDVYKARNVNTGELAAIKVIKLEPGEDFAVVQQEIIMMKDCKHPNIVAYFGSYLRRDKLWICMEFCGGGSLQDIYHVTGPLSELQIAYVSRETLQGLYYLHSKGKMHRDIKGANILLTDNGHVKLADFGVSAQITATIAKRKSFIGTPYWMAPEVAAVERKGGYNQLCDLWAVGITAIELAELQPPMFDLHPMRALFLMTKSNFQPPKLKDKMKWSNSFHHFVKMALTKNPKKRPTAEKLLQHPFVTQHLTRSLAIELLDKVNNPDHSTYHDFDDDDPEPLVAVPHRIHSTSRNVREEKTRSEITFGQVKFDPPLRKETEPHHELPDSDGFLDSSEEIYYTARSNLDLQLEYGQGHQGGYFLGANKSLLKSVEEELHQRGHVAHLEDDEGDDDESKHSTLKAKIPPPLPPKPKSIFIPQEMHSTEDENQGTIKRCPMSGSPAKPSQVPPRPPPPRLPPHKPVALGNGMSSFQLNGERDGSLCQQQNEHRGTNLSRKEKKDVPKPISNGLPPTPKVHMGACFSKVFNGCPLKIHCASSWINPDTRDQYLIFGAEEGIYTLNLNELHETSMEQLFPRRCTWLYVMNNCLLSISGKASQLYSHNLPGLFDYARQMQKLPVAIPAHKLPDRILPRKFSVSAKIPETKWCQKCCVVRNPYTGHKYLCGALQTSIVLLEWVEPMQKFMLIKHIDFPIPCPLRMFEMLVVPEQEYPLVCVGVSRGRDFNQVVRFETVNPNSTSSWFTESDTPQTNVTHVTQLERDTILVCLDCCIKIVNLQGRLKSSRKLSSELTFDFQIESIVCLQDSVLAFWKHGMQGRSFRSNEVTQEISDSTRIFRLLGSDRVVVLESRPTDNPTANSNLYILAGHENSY

[9] = molecular target: Protein kinase C delta type (Homo sapiens) (UniProt Q05655)
[10] = molecular target: T3, Serine/threonine-protein kinase D2 (Homo sapiens) (UniProt Q9BZL6)
T3 sequence (whole entry): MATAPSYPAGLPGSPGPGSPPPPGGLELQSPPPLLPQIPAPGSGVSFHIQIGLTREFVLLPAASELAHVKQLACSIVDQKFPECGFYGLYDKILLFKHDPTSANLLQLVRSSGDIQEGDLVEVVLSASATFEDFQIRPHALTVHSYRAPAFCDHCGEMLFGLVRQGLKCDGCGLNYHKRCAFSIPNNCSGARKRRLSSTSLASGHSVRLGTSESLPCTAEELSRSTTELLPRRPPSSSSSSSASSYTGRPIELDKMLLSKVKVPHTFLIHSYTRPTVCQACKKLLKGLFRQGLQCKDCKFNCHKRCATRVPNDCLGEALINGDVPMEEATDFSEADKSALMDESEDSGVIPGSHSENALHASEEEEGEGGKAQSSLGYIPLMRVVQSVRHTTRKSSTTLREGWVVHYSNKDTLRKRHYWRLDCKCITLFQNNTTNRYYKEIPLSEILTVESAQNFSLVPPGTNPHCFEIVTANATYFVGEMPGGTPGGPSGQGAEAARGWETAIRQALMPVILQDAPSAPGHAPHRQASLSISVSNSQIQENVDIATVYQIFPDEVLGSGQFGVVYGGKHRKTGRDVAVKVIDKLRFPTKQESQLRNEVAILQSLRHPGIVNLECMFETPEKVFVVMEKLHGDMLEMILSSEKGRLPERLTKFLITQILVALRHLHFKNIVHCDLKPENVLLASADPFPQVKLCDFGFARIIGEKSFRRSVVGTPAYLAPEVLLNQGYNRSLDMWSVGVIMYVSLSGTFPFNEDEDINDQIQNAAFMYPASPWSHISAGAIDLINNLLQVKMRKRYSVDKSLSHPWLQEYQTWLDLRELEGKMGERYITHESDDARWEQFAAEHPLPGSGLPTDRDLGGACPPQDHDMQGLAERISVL

[11] = molecular target: Serine/threonine-protein kinase SIK1 (Homo sapiens) (UniProt P57059)
[12] = molecular target: Serine/threonine-protein kinase SIK2 (Homo sapiens) (UniProt Q9H0K1)

Measured: residual activity

Sequence of Fibroblast growth factor receptor 1 (Homo sapiens) (P11362 22-822 limits assumed): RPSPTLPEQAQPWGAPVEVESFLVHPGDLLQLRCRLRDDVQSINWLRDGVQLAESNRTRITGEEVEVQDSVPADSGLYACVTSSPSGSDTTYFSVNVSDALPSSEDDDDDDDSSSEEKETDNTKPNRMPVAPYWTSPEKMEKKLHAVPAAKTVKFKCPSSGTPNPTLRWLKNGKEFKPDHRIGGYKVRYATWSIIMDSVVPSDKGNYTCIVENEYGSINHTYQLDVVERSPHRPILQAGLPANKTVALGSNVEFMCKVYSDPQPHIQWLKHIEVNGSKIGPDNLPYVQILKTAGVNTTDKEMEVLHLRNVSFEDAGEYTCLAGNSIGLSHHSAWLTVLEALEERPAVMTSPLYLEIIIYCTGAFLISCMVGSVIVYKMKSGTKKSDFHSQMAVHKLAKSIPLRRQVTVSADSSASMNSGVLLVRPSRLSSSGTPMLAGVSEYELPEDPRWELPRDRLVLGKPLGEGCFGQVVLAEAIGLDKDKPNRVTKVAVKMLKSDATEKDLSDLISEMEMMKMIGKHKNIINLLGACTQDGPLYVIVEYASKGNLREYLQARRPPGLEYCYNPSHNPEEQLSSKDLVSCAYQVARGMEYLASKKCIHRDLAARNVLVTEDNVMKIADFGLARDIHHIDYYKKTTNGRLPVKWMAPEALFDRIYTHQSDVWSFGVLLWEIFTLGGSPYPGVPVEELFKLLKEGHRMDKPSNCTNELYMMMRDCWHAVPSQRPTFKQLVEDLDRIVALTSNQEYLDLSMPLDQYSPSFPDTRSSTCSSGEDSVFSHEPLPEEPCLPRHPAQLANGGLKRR
Sequence of Tyrosine-protein kinase JAK2 (Homo sapiens) (O60674 whole entry): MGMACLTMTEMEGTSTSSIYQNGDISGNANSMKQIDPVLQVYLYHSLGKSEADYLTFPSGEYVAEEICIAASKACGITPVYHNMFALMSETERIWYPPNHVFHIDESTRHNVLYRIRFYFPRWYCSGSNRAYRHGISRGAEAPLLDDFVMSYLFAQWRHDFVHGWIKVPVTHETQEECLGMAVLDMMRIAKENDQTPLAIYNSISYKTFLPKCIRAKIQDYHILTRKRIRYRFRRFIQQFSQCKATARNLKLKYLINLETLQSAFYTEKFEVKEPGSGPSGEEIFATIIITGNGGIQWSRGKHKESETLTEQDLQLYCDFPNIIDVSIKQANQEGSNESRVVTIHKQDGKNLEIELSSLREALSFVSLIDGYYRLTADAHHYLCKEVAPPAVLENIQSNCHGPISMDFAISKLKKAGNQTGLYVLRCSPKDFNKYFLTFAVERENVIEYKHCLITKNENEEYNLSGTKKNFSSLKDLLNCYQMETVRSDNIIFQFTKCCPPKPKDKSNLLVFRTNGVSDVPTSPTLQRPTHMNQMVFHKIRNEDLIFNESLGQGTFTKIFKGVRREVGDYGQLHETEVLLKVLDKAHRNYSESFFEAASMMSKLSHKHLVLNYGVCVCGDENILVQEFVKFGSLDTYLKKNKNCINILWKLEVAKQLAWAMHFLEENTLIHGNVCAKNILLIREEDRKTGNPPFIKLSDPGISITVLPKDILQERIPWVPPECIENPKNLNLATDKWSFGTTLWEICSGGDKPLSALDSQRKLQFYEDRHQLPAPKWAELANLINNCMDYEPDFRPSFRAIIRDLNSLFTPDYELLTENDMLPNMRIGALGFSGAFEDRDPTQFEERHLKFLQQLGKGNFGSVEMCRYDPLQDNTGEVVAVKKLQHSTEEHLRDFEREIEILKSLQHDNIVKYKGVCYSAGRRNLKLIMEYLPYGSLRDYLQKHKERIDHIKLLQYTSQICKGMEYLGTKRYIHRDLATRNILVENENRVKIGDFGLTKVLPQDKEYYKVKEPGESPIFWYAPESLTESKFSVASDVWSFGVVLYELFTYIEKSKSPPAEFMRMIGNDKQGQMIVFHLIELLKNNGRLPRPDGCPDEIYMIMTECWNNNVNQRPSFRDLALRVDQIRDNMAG
Sequence of Protein kinase C delta type (Homo sapiens) (Q05655 whole entry, looked up): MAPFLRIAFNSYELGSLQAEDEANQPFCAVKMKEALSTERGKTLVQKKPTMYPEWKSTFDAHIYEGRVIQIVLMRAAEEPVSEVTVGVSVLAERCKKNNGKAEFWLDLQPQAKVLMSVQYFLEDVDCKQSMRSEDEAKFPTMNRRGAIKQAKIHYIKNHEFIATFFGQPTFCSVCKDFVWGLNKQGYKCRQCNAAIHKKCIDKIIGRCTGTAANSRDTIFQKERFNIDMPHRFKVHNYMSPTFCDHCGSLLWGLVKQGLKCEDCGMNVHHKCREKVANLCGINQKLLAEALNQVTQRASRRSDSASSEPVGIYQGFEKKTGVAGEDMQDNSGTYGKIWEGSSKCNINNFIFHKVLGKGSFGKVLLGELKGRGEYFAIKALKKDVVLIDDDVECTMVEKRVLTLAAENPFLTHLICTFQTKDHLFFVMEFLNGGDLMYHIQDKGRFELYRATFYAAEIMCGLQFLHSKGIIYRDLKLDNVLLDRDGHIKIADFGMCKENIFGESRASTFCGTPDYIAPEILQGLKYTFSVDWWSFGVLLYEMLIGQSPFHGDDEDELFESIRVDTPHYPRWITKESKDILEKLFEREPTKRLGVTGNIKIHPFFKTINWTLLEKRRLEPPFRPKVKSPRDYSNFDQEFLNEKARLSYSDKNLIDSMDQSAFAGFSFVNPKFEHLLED
Sequence of Serine/threonine-protein kinase SIK1 (Homo sapiens) (P57059 whole entry): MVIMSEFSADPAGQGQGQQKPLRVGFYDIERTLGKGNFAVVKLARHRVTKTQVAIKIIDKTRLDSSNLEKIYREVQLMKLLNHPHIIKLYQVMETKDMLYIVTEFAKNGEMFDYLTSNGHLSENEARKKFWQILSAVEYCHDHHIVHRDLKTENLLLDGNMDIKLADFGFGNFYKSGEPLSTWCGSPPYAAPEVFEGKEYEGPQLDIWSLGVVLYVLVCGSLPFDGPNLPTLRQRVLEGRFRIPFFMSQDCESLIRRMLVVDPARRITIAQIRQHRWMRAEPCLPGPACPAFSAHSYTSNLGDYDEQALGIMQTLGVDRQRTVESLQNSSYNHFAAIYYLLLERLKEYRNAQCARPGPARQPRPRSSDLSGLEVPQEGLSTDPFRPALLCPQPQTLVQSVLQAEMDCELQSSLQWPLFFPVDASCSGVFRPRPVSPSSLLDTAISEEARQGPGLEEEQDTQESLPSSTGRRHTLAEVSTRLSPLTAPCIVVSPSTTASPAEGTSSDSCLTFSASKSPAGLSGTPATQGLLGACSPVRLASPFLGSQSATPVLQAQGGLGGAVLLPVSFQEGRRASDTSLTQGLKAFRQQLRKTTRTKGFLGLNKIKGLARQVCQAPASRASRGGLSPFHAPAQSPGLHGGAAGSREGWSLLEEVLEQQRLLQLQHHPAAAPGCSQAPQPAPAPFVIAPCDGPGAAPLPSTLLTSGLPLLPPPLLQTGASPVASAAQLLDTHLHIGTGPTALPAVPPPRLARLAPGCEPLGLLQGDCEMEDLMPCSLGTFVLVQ
Sequence of Atypical kinase COQ8B, mitochondrial (Homo sapiens) (Q96D53 whole entry): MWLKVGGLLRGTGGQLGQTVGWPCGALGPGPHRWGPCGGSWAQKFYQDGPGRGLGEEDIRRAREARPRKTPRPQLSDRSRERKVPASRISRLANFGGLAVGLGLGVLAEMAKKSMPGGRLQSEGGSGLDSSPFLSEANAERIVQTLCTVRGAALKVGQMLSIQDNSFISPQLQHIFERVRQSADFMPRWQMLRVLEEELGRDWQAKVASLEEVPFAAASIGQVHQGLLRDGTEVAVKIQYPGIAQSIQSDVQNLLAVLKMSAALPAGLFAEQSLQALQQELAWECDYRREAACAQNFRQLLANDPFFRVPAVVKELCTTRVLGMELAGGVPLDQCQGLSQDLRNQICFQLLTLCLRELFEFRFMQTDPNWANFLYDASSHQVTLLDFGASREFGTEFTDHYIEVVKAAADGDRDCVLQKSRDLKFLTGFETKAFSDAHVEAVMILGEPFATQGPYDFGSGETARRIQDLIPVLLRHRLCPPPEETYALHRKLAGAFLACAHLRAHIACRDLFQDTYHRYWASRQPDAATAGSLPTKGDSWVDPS
Sequence of Cyclin-dependent kinase 8 (Homo sapiens) (P49336 whole entry): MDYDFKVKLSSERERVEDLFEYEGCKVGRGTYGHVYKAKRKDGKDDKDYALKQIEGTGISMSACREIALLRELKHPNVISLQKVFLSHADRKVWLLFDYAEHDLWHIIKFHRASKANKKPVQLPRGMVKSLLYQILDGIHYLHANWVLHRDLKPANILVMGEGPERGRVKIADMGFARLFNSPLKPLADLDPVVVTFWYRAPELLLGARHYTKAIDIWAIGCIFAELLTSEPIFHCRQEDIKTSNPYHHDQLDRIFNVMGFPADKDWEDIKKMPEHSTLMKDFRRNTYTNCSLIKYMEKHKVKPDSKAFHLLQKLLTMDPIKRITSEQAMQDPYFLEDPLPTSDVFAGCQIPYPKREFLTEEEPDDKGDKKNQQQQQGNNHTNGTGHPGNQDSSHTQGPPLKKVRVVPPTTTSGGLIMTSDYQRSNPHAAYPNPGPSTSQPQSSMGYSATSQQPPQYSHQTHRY
Sequence of Cyclin-dependent kinase 4 (Homo sapiens) (P11802 whole entry): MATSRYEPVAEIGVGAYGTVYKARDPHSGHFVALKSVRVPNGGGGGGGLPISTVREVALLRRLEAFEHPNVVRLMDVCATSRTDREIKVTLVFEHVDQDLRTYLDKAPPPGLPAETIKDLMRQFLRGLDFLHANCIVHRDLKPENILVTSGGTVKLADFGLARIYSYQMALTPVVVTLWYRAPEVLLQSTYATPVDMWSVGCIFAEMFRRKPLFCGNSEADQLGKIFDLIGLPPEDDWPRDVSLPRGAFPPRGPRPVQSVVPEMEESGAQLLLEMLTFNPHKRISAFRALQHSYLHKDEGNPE

Cc1nc(C2CCN(C(=O)c3ccc(OC(F)(F)F)cc3N)CC2)c2ncc(N3CCN(C)CC3)cc2n1 [BAY-693]
inactive: [1] 93% | [2] 99% | [3] 99% | [4] 100% | [5] 100% | [6] 100% | [7] 99% | [8] 100% | [9] 100% | [10] 92% | [11] 100% | [12] 100%

CN1CCN(c2cnc3c(C4CCN(C(=O)c5ccc(OC(F)(F)F)cc5N)CC4)ncnc3c2)CC1 [BAY-885]
inactive: [1] 100% | [2] 100% | [3] 98% | [4] 100% | [5] 100% | [6] 100% | [7] 83% | [8] 100% | [9] 100% | [10] 100% | [11] 92% | [12] 100%

From ChEMBL document CHEMBL4507268 (2021)
